Assay results taken from patent US20140128380A1, “METHODS OF MODULATING THE ACTIVITY OF THE MC1 RECEPTOR AND TREATMENT OF CONDITIONS RELATED TO THIS RECEPTOR” (Mimetica Pty Ltd, priority 2009, published 2014).

molecular target: T1, human MC1R (hMC1R) (Homo sapiens, UniProt Q01726); experiment: Human MC1R radioligand binding assay (displacement of 125I-labeled NDP-MSH, Perkin Elmer hMC1R membranes); conditions: displacement of [125I]NDP-MSH, compounds tested as trifluoroacetate or hydrochloride salts or free base
T1 construct: purchased Perkin Elmer ES-195-M400UA
T1 sequence (Q01726 whole entry): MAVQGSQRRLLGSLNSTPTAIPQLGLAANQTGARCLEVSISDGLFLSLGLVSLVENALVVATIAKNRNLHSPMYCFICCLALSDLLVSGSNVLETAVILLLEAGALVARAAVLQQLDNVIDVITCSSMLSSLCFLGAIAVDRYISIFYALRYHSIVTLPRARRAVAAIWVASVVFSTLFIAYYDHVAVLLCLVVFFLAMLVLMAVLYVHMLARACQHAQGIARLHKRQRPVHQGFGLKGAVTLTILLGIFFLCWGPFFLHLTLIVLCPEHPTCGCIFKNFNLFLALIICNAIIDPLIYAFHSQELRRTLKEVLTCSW
Protocol: Assessments of compound binding to human MC1R (hMC1R)) by displacement of an ^125I-labeled NDP-MSH receptor ligand peptide were performed essentially as described in the data sheets produced by Perkin Elmer to accompany their frozen hMC1R membranes (Perkin Elmer catalog number ES-195-M400UA).
[^125I] NDP-MSH: radiolabeled in house and purified by HPLC:
Na ^125I (0.5 mCi, 17.4 Ci/mg) was added to 50 μL sodium phosphate (50 mM, pH 7.4) in an eppendorf tube precoated with IODOGEN. After incubation for 10 mins the phosphate buffer containing the iodine was added to NDP-MSH (10 ul at 1 mg/mL) in a separate eppendorf tube. This was incubated for a further 10 mins. The iodinated NDP-MSH was purified by HPLC on a Zorbax SB 300 column using solvent A: 0.05% TFA and solvent B: 90% acetonitrile 0.045% TFA with a linear gradient, 0-67% B over 60 mins.
Perkin Elmer frozen hMC1 membranes: catalog number ES-195-M400UA, 0.4 mL/vial; 400 microassays/vial, 0.78 mg/mL protein concentration
Vials of frozen membranes were thawed rapidly immediately before use, diluted with binding buffer and vortexed. Resuspended membranes were kept on ice until they were added to the wells of the plate.
Assays were performed in 96 well polypropylene plates. […] This was incubated for 1 hr at 37° C.

Compound | IC50 [µM]
CNC(=O)[C@H](Cc1ccc2ccccc2c1)N1CC[C@H](CNC(=O)Cc2ccc(Cl)cc2)N[C@@H](CCCNC(=N)N)C1=O [Compound 167, (S)-2-((3S,5R)-5-((2-(4-chlorophenyl)acetamido)methyl)-3-(3-guanidinopropyl)-2-oxo-1,4-diazepan-1-yl)-N-methyl-3-(naphthalen-2-yl)propanamide] | < 10
N=C(N)NCCC[C@@H]1N[C@H](CNC(=O)c2ccc3ccccc3c2)CCN(CC2c3ccccc3-c3ccccc32)C1=O [Compound 126, N-(((3S,5S)-1-((9H-fluoren-9-yl)methyl)-3-(3-guanidinopropyl)-2-oxo-1,4-diazepan-5-yl)methyl)-2-naphthamide] | < 10
Cc1ccc(/C=C/C(=O)NC[C@@H]2CCN(CC(c3ccccc3)c3ccccc3)C(=O)[C@H](CCN)N2)c(C)c1 [Compound 157, (E)-N-(((3S,5S)-3-(2-aminoethyl)-1-(2,2-diphenylethyl)-2-oxo-1,4-diazepan-5-yl)methyl)-3-(2,4-dimethylphenyl)acrylamide] | < 10
O=C(/C=C/c1ccc(F)cc1)NC[C@@H]1CCN(CC(c2ccccc2)c2ccccc2)C(=O)[C@H](CCCNC2CCCCC2)N1 [Compound 127, (E)-N-(((3S,5S)-3-(3-(cyclohexylamino)propyl)-1-(2,2-diphenylethyl)-2-oxo-1,4-diazepan-5-yl)methyl)-3-(4-fluorophenyl)acrylamide] | < 10
NCC[C@@H]1N[C@H](CNC(=O)c2ccc(Cl)c(Cl)c2)CCN(Cc2cc(Cl)cc(Cl)c2)C1=O [Compound 140, N-(((3S,5S)-3-(2-aminoethyl)-1-(3,5-dichlorobenzyl)-2-oxo-1,4-diazepan-5-yl)methyl)-3,4-dichlorobenzamide] | < 10
N=C(N)NCCC[C@@H]1N[C@H](CNC(=O)c2ccc3ccccc3c2)CCN(CC(C(=O)Nc2ccccc2)c2ccccc2)C1=O (stereo partly drawn) [Compound 147, N-(((3S,5S)-3-(3-guanidinopropyl)-2-oxo-1-(3-oxo-2-phenyl-3-(phenylamino)propyl)-1,4-diazepan-5-yl)methyl)-2-naphthamide] | < 10
CNC(=O)[C@H](Cc1ccc2ccccc2c1)N1CC[C@H](CNC(=O)/C=C/c2ccc(Cl)cc2)N[C@@H](CCCNC(=N)N)C1=O [Compound 175, (E)-3-(4-chlorophenyl)-N-(((3S,5R)-3-(3-guanidinopropyl)-1-((S)-1-(methylamino)-3-(naphthalen-2-yl)-1-oxopropan-2-yl)-2-oxo-1,4-diazepan-5-yl)methyl)acrylamide] | < 10
NCCC[C@@H]1N[C@H](CNC(=O)c2ccc(Cl)c(Cl)c2)CCN(CC(c2ccccc2)c2ccccc2)C1=O [Compound 123] | < 10
CN(C)C(=N)NCCC[C@@H]1N[C@H](CNC(=O)c2ccc3ccccc3c2)CCN(CC(c2ccccc2)c2ccccc2)C1=O [Compound 117, N-(((3S,5S)-3-(3-(3,3-dimethylguanidino)propyl)-1-(2,2-diphenylethyl)-2-oxo-1,4-diazepan-5-yl)methyl)-2-naphthamide] | < 10
O=C(/C=C/c1ccc(Cl)cc1)NC[C@@H]1CCN(Cc2cc(Cl)cc(Cl)c2)C(=O)[C@H](CN2CCCCC2)N1 [Compound 152, (E)-3-(4-chlorophenyl)-N-(((3S,5S)-1-(3,5-dichlorobenzyl)-2-oxo-3-(piperidin-1-ylmethyl)-1,4-diazepan-5-yl)methyl)acrylamide] | < 10
CNC(=O)[C@H](Cc1ccc2ccccc2c1)N1CC[C@H](CNC(=O)[C@H](N)Cc2ccc(Cl)cc2)N[C@@H](CCCNC(=N)N)C1=O [Compound 174, (R)-2-amino-3-(4-chlorophenyl)-N-(((3S,5R)-3-(3-guanidinopropyl)-1-((S)-1-(methylamino)-3-(naphthalen-2-yl)-1-oxopropan-2-yl)-2-oxo-1,4-diazepan-5-yl)methyl)propanamide] | < 10
CCC(CN1CC[C@@H](CNC(=O)c2ccc3ccccc3c2)N[C@@H](CCN)C1=O)c1ccccc1 (mixture of isomers) [Compound 102, N-(((3S,5S)-3-(2-aminoethyl)-2-oxo-1-(2-phenylbutyl)-1,4-diazepan-5-yl)methyl)-2-naphthamide] | < 10
N=C(N)NCCC[C@@H]1N[C@H](CNC(=O)c2ccc3ccccc3c2)CCN(Cc2cc(Cl)cc(Cl)c2)C1=O [Compound 100, N-(((3S,5S)-1-(3,5-dichlorobenzyl)-3-(3-guanidinopropyl)-2-oxo-1,4-diazepan-5-yl)methyl)-2-naphthamide] | < 10
O=C(NC[C@@H]1CCN(Cc2cc(Cl)cc(Cl)c2)C(=O)[C@H](CN2CCCCC2)N1)c1ccc(Cl)c(Cl)c1 [Compound 151, 3,4-dichloro-N-(((3S,5S)-1-(3,5-dichlorobenzyl)-2-oxo-3-(piperidin-1-ylmethyl)-1,4-diazepan-5-yl)methyl)benzamide] | < 10
NCC[C@@H]1N[C@H](CNC(=O)c2ccc(Cl)c(Cl)c2)CCN(CC(c2ccccc2)c2ccccc2)C1=O [Compound 135, N-(((3S,5S)-3-(2-aminoethyl)-1-(2,2-diphenylethyl)-2-oxo-1,4-diazepan-5-yl)methyl)-3,4-dichlorobenzamide] | < 10
CC[C@H](CN1CC[C@@H](CNC(=O)c2ccc(Cl)c(Cl)c2)N[C@@H](CCN)C1=O)c1ccccc1 [Compound 170, N-(((3S,5S)-3-(2-aminoethyl)-2-oxo-1-((S)-2-phenylbutyl)-1,4-diazepan-5-yl)methyl)-3,4-dichlorobenzamide] | < 10
NCCC[C@@H]1N[C@H](CNC(=O)/C=C/c2ccc(F)cc2)CCN(CC(c2ccccc2)c2ccccc2)C1=O [Compound 121, (E)-N-(((3S,5S)-3-(3-aminopropyl)-1-(2,2-diphenylethyl)-2-oxo-1,4-diazepan-5-yl)methyl)-3-(4-fluorophenyl)acrylamide] | < 10
CN1[C@H](CNC(=O)c2ccc3cc(Br)ccc3c2)CCN(CC(c2ccccc2)c2ccccc2)C(=O)[C@@H]1CCCN [Compound 105, N-(((3S,5S)-3-(3-aminopropyl)-1-(2,2-diphenylethyl)-4-methyl-2-oxo-1,4-diazepan-5-yl)methyl)-6-bromo-2-naphthamide] | < 10
CC[C@H](CN1CC[C@@H](CNC(=O)c2ccc3cc(Cl)ccc3c2)N[C@@H](CCN(C(C)=O)C(C)C)C1=O)c1ccccc1 [Compound 180, 6-chloro-N-(((3S,5S)-3-(2-(N-isopropylacetamido)ethyl)-2-oxo-1-((S)-2-phenylbutyl)-1,4-diazepan-5-yl)methyl)-2-naphthamide] | < 10
NC[C@@H]1N[C@H](CNC(=O)/C=C/c2ccc(Cl)cc2)CCN(CC(c2ccccc2)c2ccccc2)C1=O [Compound 133, (E)-N-(((3S,5S)-3-(aminomethyl)-1-(2,2-diphenylethyl)-2-oxo-1,4-diazepan-5-yl)methyl)-3-(4-chlorophenyl)acrylamide] | < 10
CC1CC(C)CC(CN2CC[C@@H](CNC(=O)c3ccc4ccccc4c3)N[C@@H](CCCNC(=N)N)C2=O)C1 (stereo partly drawn) [Compound 139, N-(((3S,5S)-1-((3,5-dimethylcyclohexyl)methyl)-3-(3-guanidinopropyl)-2-oxo-1,4-diazepan-5-yl)methyl)-2-naphthamide] | < 10
N-(((3R,5R)-3-(2-amino-2-methylpropyl)-2-oxo-1-((S)-2-phenylbutyl)-1,4-diazepan-5-yl)methyl)-6-chloro-2-naphthamide [Compound 169] | < 10
CCC(CC)CN1CC[C@@H](CNC(=O)/C=C/c2ccc(Cl)cc2)N[C@@H](CCN)C1=O [Compound 146, (E)-N-(((3S,5S)-3-(2-aminoethyl)-1-(2-ethylbutyl)-2-oxo-1,4-diazepan-5-yl)methyl)-3-(4-chlorophenyl)acrylamide] | < 10
N=C(N)NCCC[C@@H]1N[C@H](CNC(=O)c2ccc3ccccc3c2)CCN(CC(Oc2ccccc2)c2ccccc2)C1=O (stereo partly drawn) [Compound 138, N-(((3S,5S)-3-(3-guanidinopropyl)-2-oxo-1-(2-phenoxy-2-phenylethyl)-1,4-diazepan-5-yl)methyl)-2-naphthamide] | < 10
(E)-N-(((3S,5S)-3-(aminomethyl)-1-(3,5-dichlorobenzyl)-2-oxo-1,4-diazepan-5-yl)methyl)-3-(4-chlorophenyl)acrylamide [Compound 150] | < 10
Cc1ccc(/C=C/C(=O)NC[C@@H]2CCN(CC(c3ccccc3)c3ccccc3)C(=O)[C@H](CCCN)N2)cc1 [Compound 120, (E)-N-(((3S,5S)-3-(3-aminopropyl)-1-(2,2-diphenylethyl)-2-oxo-1,4-diazepan-5-yl)methyl)-3-p-tolylacrylamide] | < 10
O=C(/C=C/c1ccc(Cl)cc1)NC[C@@H]1CCN(CC(c2ccccc2)c2ccccc2)C(=O)[C@H](CN2CCCCC2)N1 [Compound 134, (E)-3-(4-chlorophenyl)-N-(((3S,5S)-1-(2,2-diphenylethyl)-2-oxo-3-(piperidin-1-ylmethyl)-1,4-diazepan-5-yl)methyl)acrylamide] | < 10
NCCC[C@@H]1N[C@H](CNC(=O)c2cc(-c3ccc(Cl)cc3)on2)CCN(CC(c2ccccc2)c2ccccc2)C1=O [Compound 129] | < 10
